SMILES strings stand for the structures. Where two headings read alike, the source gives them in different places.

As usually defined, the IC50 is the point on the concentration scale where inhibition reaches its midpoint.

In assay [1] the test system is HCT116 MTAP KO cells. Kind of assay: Inhibitory activity against cell proliferation (CellTiter Glo, 6 days), HCT116 MTAP KO. The assay is classed as cell-based. Particulars: for IC50: Homo sapiens, HCT-116, 144 h; for Selectivity HCT 116-WT/ HCT116 MTAP KO: ratio of IC50 HCT116-WT / HCT116 MTAP KO. The essentials:
(§1)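 Viability IC50s come from CellTiter Glo luminescence after 6 days' exposure to compound (8 concentrations, 4-fold steps, top 10000 nM), relative to DMSO wells. Cells were MTAP-KO or WT HCT116, seeded at 250 per well in McCoy's 5A with 10% FBS and incubated overnight before dosing.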
A general note: Cellular ATP, detected with luciferase, serves as a proxy for viable cell number.

Assay [2] deals with HCT116-WT cells. Kind of assay: Inhibitory activity against cell proliferation (CellTiter Glo, 6 days), HCT116-WT. The assay is classed as cell-based. Conditions: 144 h. Summed up: as §1
In assay [3] the target is PRMT5-MTA (Homo sapiens, UniProt O14744). Kind of assay: Enzymatic inhibitory activity against PRMT5-MTA (AlphaScreen). The assay is classed as biochemical. The essentials:
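PRMT5/[…] (1 nM) was preincubated for 30 min at room temperature with 1 µM […] and 2.5 µM SAM, then exposed to compound (10-point, 3-fold from 1000 nM) for 15 min at 23 °C. Histone H4 substrate (5 nM) was added and reacted for 45 min at 23 °C. Symmetric dimethyl-R3 H4 was detected by AlphaScreen and IC50 calculated.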
In general terms: Bead proximity is the source of the signal in Alpha formats.

The mark [4] stands for this setting: HCT116 MTAP KO cells, 6 days, CellTiter Glo, read-out: HCT116 MTAP KO IC50.
Where [5] appears, read: HCT116-WT cells, 6 days, CellTiter Glo, read-out: HCT116-WT IC50.

Chain of PRMT5-MTA (O14744 whole entry): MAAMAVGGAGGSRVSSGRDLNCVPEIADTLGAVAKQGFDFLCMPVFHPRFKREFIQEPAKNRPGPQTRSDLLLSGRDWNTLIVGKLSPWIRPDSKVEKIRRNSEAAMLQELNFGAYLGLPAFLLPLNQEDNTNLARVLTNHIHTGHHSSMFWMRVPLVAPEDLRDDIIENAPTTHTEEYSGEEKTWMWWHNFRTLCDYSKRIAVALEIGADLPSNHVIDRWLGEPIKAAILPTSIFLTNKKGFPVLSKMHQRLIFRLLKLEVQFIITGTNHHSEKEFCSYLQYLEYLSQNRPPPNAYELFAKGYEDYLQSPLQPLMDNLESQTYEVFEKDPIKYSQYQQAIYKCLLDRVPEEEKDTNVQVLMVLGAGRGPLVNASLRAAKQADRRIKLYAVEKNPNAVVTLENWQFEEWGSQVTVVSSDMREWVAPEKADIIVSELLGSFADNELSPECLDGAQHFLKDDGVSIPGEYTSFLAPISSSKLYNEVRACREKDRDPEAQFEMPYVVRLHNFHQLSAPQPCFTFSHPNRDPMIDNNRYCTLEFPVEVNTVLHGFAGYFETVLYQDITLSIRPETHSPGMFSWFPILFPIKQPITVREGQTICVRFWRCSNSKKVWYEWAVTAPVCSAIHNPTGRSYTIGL
Chain of PRMT5-MTA (Q9BQA1 whole entry partner): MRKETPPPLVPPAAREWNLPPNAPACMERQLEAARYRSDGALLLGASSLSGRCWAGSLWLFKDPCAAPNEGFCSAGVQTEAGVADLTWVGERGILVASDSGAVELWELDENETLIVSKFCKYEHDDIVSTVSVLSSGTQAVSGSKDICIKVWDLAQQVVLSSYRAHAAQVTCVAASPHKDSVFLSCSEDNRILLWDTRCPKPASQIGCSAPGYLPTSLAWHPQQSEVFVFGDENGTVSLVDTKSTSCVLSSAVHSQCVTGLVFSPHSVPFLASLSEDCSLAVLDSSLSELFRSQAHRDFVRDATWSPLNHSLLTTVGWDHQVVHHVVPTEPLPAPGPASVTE

Turning to `Cc1cc2cc(C(=O)N(Cc3ccc(-c4cncs4)cn3)N(c3ncccn3)C3CC3)ccc2nc1N` [Example 215, 2-amino-N'-cyclopropyl-3-methyl-N'-(pyrimidin-2-yl)-N-((5-(thiazol-5-yl)pyridin-2-yl)methyl)quinoline-6-carbohydrazide], the concentration for half-maximal inhibition (IC50) in assay [1] (setting [4]) amounted to 7.1 nM; in assay [2] (setting [5]) it was 178 nM; in assay [3] (read-out: IC50), 5.3 nM. In assay [1], the “Selectivity HCT 116-WT/ HCT116 MTAP KO” value was 25.07.

For the compound `Cc1cc2nc(N)c3cnn(C)c3c2cc1C(=O)N1CCCN1c1ncc(-c2ccc(N3CCN(C)CC3)nc2)cc1F` [Example 478], the half-inhibitory concentration (IC50) in assay [1] (read-out: HCT116 MTAP KO IC50 (nM)) worked out at 166 nM; in assay [2] (read-out: HCT116-WT IC50 (nM)) it was 4320 nM; in assay [3], 19 nM. For the same compound, the “Selectivity HCT 116-WT/ HCT116 MTAP KO” value in assay [1] is 26.01.

Regarding `CCC1(F)CN(C(=O)c2cc3c(cc2C)nc(N)c2cnn(C)c23)N(c2ncccc2F)C1` (centres unmarked) [Example 423, (4-amino-1,7-dimethyl-1H-pyrazolo[4,3-c]quinolin-8-yl)(4-ethyl-4-fluoro-2-(3-fluoropyridin-2-yl)pyrazolidin-1-yl)methanone], the results for the IC50 in assay [1] (setting [4]), in assay [2] (setting [5]) and in assay [3] (read-out: IC50) were 25 nM, 682 nM and 6.7 nM, respectively. The “Selectivity HCT 116-WT/ HCT116 MTAP KO” value in assay [1] worked out at 27.28.

For the compound `CC1CN(C(=O)c2cc3c(cc2Cl)nc(N)c2cnn(C)c23)N(c2ncccc2F)C1` (centres unmarked) [Example 398, (4-amino-7-chloro-1-methyl-1H-pyrazolo [4,3-c]quinolin-8-yl)(2-(3-fluoropyridin-2-yl)-4-methylpyrazolidin-1-yl)methanone], the results for the IC50 in assay [1] (setting [4]), in assay [2] (setting [5]) and in assay [3] (read-out: IC50) were 39 nM, 1620 nM and 3.9 nM, respectively. Also, in assay [1], the “Selectivity HCT 116-WT/ HCT116 MTAP KO” value worked out at 41.49.

For the compound `Cn1ncc2c(N)nc3cc(Cl)c(C(=O)N4CC(C(F)(F)F)CN4c4ncccc4F)cc3c21` (centres unmarked) [Example 351, (4-amino-7-chloro-1-methyl-1H-pyrazolo [4,3-c]quinolin-8-yl)(2-(3-fluoropyridin-2-yl)-4-(trifluoromethyl)pyrazolidin-1-yl) methanone], the half-maximal inhibitory concentration (IC50) in assay [1] (setting [4]) came out at 85 nM; in assay [2] (setting [5]), 1840 nM; in assay [3] (read-out: IC50), 4.9 nM. In assay [1], the “Selectivity HCT 116-WT/ HCT116 MTAP KO” value was 21.59.

Turning to `[2H]C([2H])([2H])c1cc2cc(C(=O)N(Cc3ccc(C(F)(F)F)cn3)N(C)c3nccc4nccnc34)ccc2nc1N` [Example 313, 2-amino-N'-methyl-3-(methyl-d3)-N'-(pyrido[3,4-b]pyrazin-5-yl)-N-((5-(trifluoromethyl)pyridin-2-yl)methyl)quinoline-6-c arbohydrazide], the figures for the IC50 in assay [1] (setting [4]), in assay [2] (setting [5]) and in assay [3] (read-out: IC50) were 38 nM, 508 nM and 4.2 nM, respectively. Moreover, the “Selectivity HCT 116-WT/ HCT116 MTAP KO” value in assay [1] worked out at 13.37.

Turning to `COC1CN(C(=O)c2cc3c(cc2Cl)nc(N)c2cnn(C)c23)N(c2cccc(F)c2F)C1` (centres unmarked) [Example 447, (4-amino-7-chloro-1-methyl-1H-pyrazolo [4,3-c]quinolin-8-yl)(2-(2,3-difluorophenyl)-4-methoxypyrazolidin-1-yl)methanone], the figures for the IC50 in assay [1] (setting [4]), in assay [2] (setting [5]) and in assay [3] (read-out: IC50) were 24 nM, 315 nM and 6.8 nM, respectively. Moreover, the “Selectivity HCT 116-WT/ HCT116 MTAP KO” value in assay [1] came to 13.13.

Consider `Cn1ncc2c(N)nc3cc(Cl)c(C(=O)N4CC(F)(F)CN4c4ncccc4F)cc3c21` [Example 459, (4-amino-7-chloro-1-methyl-1H-pyrazolo [4,3-c]quinolin-8-yl)(4,4-difluoro-2-(3-fluoropyridin-2-yl)pyrazolidin-1-yl)methanone], for which the IC50 in assay [1] (setting [4]) was determined as 30 nM; in assay [2] (setting [5]), 408 nM; in assay [3] (read-out: IC50), 4.7 nM. For the same compound, the “Selectivity HCT 116-WT/ HCT116 MTAP KO” value in assay [1] was found to be 13.60.

Turning to `Cc1cc2cc(C(=O)N(Cc3ccc(-c4ccncc4)cn3)N(C)c3ncccc3F)ccc2nc1N` [Example 178, N-([3,4'-bipyridine]-6-ylmethyl)-2-amino -N'-(3-fluoropyridin-2-yl)-N',3-dimethylq uinoline-6-carbohydrazide], the IC50 in assay [1] (setting [4]) came out at 21 nM; in assay [2] (setting [5]) it was 486 nM; in assay [3] (read-out: IC50) it was 1.6 nM. Besides, the “Selectivity HCT 116-WT/ HCT116 MTAP KO” value in assay [1] is given as 23.14.

Regarding `Cn1ncc2c(N)nc3cc(Cl)c(C(=O)N4CC(OCC(F)(F)F)CN4c4ncccc4F)cc3c21` (centres unmarked) [Example 451, (4-amino-7-chloro-1-methyl-1H-pyrazolo[4,3-c]quinolin-8-yl)(2-(3-fluoropyridin-2-yl)-4-(2,2,2-trifluoroethoxy)pyrazolidin-1-yl)methanone], the values for the 50% inhibitory concentration (IC50) in assay [1] (setting [4]), in assay [2] (setting [5]) and in assay [3] (read-out: IC50) were 40 nM, 1010 nM and 7 nM, respectively. In addition, the “Selectivity HCT 116-WT/ HCT116 MTAP KO” value in assay [1] stood at 25.30.

For `Cn1ncc2c(N)nc3cc(Cl)c(C(=O)N4CC5(CN4c4ncccc4F)CC(F)(F)C5)cc3c21` [Example 411, (4-amino-7-chloro-1-methyl-1H-pyrazolo [4,3-c]quinolin-8-yl)(2,2-difluoro-7-(3-fluoropyridin-2-yl)-6,7-diazaspiro[3.4]octan-6-yl)methanone], the concentration for half-maximal inhibition (IC50) turned out to be 15 nM in assay [1] (setting [4]), 221 nM in assay [2] (setting [5]) and 6.3 nM in assay [3] (read-out: IC50). In addition, the “Selectivity HCT 116-WT/ HCT116 MTAP KO” value in assay [1] was found to be 14.73.

With `Cc1cc2cc(C(=O)N(Cc3ccc(C(F)(F)F)cn3)N(C)c3nccc(C(F)(F)F)n3)ccc2nc1N` [Example 40, 2-amino-N',3-dimethyl-N-((5-(trifluoromethyl)pyridin-2-yl)methyl)-N'-(4-(trifluor omethyl)pyrimidin-2-yl)quinoline-6-carb ohydrazide], the results for the IC50 in assay [1] (setting [4]), in assay [2] (setting [5]) and in assay [3] (read-out: IC50) were 83 nM, 2590 nM and 1.7 nM, respectively. The “Selectivity HCT 116-WT/ HCT116 MTAP KO” value in assay [1] was 31.19.

`Cc1cc2cc(C(=O)N(Cc3ccc4ccccc4n3)N(C)c3ncccn3)ccc2nc1N` [Example 51, 2-amino-N',3-dimethyl-N'-(pyrimidin-2-yl)-N-(quinolin-2-ylmethyl)quinoline-6-carbohydrazide]: the IC50 in assay [1] (setting [4]) amounted to 116 nM; in assay [2] (setting [5]), 2060 nM; in assay [3] (read-out: IC50), 1.7 nM. Also, the “Selectivity HCT 116-WT/ HCT116 MTAP KO” value in assay [1] is on record as 17.78.

For `COc1cnc(N(C)N(Cc2ccc(C(F)(F)F)cn2)C(=O)c2ccc3nc(N)c(C)cc3c2)nc1` [Example 39, 2-amino-N'-(5-methoxypyrimidin-2-yl)-N',3-dimethyl-N-((5-(trifluoromethyl)pyridin-2-yl)methyl)quinoline-6-carbohydrazide], the half-inhibitory concentration (IC50) in assay [1] (setting [4]) was determined as 235 nM; in assay [2] (setting [5]) it was 3750 nM; in assay [3] (read-out: IC50), 2.7 nM. In addition, the “Selectivity HCT 116-WT/ HCT116 MTAP KO” value in assay [1] is given as 15.95.

With `Cc1cc2cc(C(=O)N(Cc3ccc(C(F)(F)F)cn3)n3ccc4cccnc43)ccc2nc1N` [Example 21, 2-amino-3-methyl-N-(1H-pyrrolo[2,3-b]pyridin-1-yl)-N-((5-(trifluoromethyl)pyridin-2-yl)methyl)quinoline-6-carboxamide], the IC50 was found to be 85 nM in assay [1] (setting [4]), 2340 nM in assay [2] (setting [5]) and 1.9 nM in assay [3] (read-out: IC50). Moreover, in assay [1], the “Selectivity HCT 116-WT/ HCT116 MTAP KO” value came out at 27.53.

Regarding `Cc1cc2cc(C(=O)N(Cc3ccc(-c4scnc4C(F)(F)F)cn3)N(C)c3ncccn3)ccc2nc1N` [Example 237, 2-amino-N',3-dimethyl-N'-(pyrimidin-2-yl)-N-((5-(4-(trifluoromethyl)thiazol-5-yl)pyridin-2-yl)methyl)quinoline-6-carbohydrazide], the IC50 came out at 32 nM in assay [1] (setting [4]), 1180 nM in assay [2] (setting [5]) and 8 nM in assay [3] (read-out: IC50). Further, the “Selectivity HCT 116-WT/ HCT116 MTAP KO” value in assay [1] was determined as 36.97.

`Cc1cc2cc(C(=O)N(Cc3ccc(-c4cnsc4)cn3)N(C)c3ncccn3)ccc2nc1N` [Example 157, 2-amino-N-((5-(isothiazol-4-yl)pyridin-2-yl)methyl)-N',3-dimethyl-N'-(pyrimidin-2-yl)quinoline-6-carbohydrazide]: the 50% inhibitory concentration (IC50) in assay [1] (setting [4]) amounted to 14 nM; in assay [2] (setting [5]), 361 nM; in assay [3] (read-out: IC50), 6.9 nM. Further, the “Selectivity HCT 116-WT/ HCT116 MTAP KO” value in assay [1] was found to be 25.79.

Take `Cc1cc2nc(N)c3cnn(C)c3c2cc1C(=O)N1CCCN1c1ccc(C(F)(F)F)cn1` [Example 338, (4-amino-1,7-dimethyl-1H-pyrazolo[4,3-c]quinolin-8-yl)(2-(5-(trifluoromethyl)pyridin-2-yl)pyrazolidin-1-yl)methanone]: the values for the concentration for half-maximal inhibition (IC50) in assay [1] (setting [4]), in assay [2] (setting [5]) and in assay [3] (read-out: IC50) were 153 nM, 3770 nM and 2.8 nM, respectively. Further, the “Selectivity HCT 116-WT/ HCT116 MTAP KO” value in assay [1] came out at 24.64.

Regarding `CN(c1ncccn1)N(Cc1ccc(C(F)(F)F)cn1)C(=O)c1ccc2nc(N)c(CO)cc2c1` [Example 325, 2-amino-3-hydroxymethyl-N'-methyl-N'-(pyrimidin-2-yl)-N-((5-(trifluoromethyl)pyridin-2-yl)methyl)quinoline-6-carbohydrazide], the half-inhibitory concentration (IC50) in assay [1] (setting [4]) was determined as 82 nM; in assay [2] (setting [5]) it was 3180 nM; in assay [3] (read-out: IC50), 2.3 nM. Moreover, the “Selectivity HCT 116-WT/ HCT116 MTAP KO” value in assay [1] is 38.72.

For `Cc1cc2nc(N)c3cnn(C)c3c2cc1C(=O)N1CC(C)CN1c1cccc(Cl)c1F` (centres unmarked) [Example 383, (4-amino-1,7-dimethyl-1H-pyrazolo[4,3-c]quinolin-8-yl)(2-(3-chloro-2-fluorophenyl)-4-methylpyrazolidin-1-yl)methanone], the half-inhibitory concentration (IC50) in assay [1] (setting [4]) was found to be 50 nM; in assay [2] (setting [5]), 1770 nM; in assay [3] (read-out: IC50), 6 nM. In addition, the “Selectivity HCT 116-WT/ HCT116 MTAP KO” value in assay [1] stood at 35.34.
